Reference: paper PMC8550792, “Evolution of kinase polypharmacology across HSP90 drug discovery” (Cell Chemical Biology, 2021)

Tests used:
Test in all cases: biochemical
Type in all cases: biochemical
382 unique human kinases [1] = molecular target: T1, 382 unique human kinases (Homo sapiens, UniProt O75676); conditions: kinase MSK2/RPS6KA4, compound 10 uM; for remaining activity at 10 µM: read-out: % Enzyme Activity (relative to DMSO controls)
T1 construct: purchased Reaction Biology (HotSpot contract assay)

382 unique human kinases [2] = molecular target: T2, 382 unique human kinases (Homo sapiens, UniProt P15056, V600A); conditions: BRAF (V600A), compound at 10 uM, duplicate values; for remaining activity at 10 µM: read-out: % Enzyme Activity (relative to DMSO controls)
T2 construct: purchased Reaction Biology (HotSpot contract assay)

382 unique human kinases [3] = molecular target: T3, 382 unique human kinases (Homo sapiens, UniProt P29376); conditions: TYK1/LTK, 10 uM; for remaining activity at 10 µM: read-out: % Enzyme Activity (relative to DMSO controls)
T3 construct: purchased Reaction Biology (HotSpot contract assay)

382 unique human kinases [4] = molecular target: T4, 382 unique human kinases (Homo sapiens, UniProt Q8WTQ7); conditions: GRK7, 10 uM; for remaining activity at 10 µM: read-out: % Enzyme Activity (relative to DMSO controls)
T4 construct: purchased Reaction Biology (HotSpot contract assay)
T4 sequence (Q8WTQ7 1-553): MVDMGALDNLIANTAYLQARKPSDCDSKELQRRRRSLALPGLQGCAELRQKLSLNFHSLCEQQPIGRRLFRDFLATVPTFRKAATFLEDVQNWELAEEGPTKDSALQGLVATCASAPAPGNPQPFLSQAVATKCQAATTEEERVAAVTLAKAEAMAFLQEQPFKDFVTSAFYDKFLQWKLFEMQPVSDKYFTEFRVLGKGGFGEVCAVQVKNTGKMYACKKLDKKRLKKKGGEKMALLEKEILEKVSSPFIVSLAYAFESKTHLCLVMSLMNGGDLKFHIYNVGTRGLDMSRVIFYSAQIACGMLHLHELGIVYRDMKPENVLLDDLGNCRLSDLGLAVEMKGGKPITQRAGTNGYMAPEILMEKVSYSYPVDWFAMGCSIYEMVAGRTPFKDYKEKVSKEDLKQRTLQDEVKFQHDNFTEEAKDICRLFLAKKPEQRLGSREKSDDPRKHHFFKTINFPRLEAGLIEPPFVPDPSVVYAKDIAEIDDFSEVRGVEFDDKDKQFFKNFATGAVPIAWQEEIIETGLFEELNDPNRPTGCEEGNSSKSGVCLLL

382 unique human kinases [5] = molecular target: T5, 382 unique human kinases (Homo sapiens, UniProt Q99683); conditions: ASK1/MAP3K5, compound at 10 uM, duplicate values; for remaining activity at 10 µM: read-out: % Enzyme Activity (relative to DMSO controls)
T5 construct: purchased Reaction Biology (HotSpot contract assay)
T5 sequence (Q99683 1-1374): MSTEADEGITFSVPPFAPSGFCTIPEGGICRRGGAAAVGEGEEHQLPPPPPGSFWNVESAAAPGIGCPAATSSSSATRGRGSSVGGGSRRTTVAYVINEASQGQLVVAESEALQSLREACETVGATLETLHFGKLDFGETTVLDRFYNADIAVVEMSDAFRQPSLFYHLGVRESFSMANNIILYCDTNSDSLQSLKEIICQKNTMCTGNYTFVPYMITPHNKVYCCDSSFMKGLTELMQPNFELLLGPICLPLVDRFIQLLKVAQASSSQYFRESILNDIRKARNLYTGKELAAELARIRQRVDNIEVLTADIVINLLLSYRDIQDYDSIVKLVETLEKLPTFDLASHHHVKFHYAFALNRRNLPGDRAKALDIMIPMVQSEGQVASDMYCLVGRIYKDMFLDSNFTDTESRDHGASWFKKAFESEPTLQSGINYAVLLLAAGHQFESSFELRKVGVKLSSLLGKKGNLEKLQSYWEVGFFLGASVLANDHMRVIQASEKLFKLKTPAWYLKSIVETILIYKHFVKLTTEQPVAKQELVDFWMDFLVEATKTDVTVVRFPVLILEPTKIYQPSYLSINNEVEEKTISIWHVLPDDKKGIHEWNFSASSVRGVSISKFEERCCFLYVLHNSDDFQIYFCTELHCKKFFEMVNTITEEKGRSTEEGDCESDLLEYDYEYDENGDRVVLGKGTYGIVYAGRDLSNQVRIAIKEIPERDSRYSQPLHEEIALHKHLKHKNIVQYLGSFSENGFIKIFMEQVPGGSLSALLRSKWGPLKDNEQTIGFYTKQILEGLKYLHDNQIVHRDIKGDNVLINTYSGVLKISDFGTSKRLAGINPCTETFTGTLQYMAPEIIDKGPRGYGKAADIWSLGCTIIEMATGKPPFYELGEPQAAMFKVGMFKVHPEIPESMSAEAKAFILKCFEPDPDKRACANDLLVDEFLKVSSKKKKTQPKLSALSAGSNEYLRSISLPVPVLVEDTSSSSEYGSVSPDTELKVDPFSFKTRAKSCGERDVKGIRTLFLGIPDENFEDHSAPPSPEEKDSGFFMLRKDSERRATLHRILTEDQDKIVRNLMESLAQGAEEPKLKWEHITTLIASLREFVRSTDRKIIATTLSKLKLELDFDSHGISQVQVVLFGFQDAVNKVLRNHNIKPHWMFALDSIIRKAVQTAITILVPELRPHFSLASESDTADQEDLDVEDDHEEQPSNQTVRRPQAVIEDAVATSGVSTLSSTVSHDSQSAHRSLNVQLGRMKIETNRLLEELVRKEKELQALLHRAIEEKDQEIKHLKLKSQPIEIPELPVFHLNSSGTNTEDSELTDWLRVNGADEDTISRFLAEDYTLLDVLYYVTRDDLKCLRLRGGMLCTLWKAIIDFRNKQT

382 unique human kinases [6] = molecular target: T6, 382 unique human kinases (Homo sapiens, UniProt Q9BUB5); conditions: kinase MNK1, compound 10 uM; for remaining activity at 10 µM: read-out: % Enzyme Activity (relative to DMSO controls)
T6 construct: purchased Reaction Biology (HotSpot contract assay)

382 unique human kinases [7] = molecular target: T7, 382 unique human kinases (Homo sapiens, UniProt Q9P0L2); conditions: MARK1, compound at 10 uM, duplicate values; for remaining activity at 10 µM: read-out: % Enzyme Activity (relative to DMSO controls)
T7 construct: purchased Reaction Biology (HotSpot contract assay)

382 unique human kinases [8] = molecular target: T8, 382 unique human kinases (Homo sapiens, UniProt P00533, G719D); conditions: EGFR (G719D), 10 uM; for remaining activity at 10 µM: read-out: % Enzyme Activity (relative to DMSO controls)
T8 construct: purchased Reaction Biology (HotSpot contract assay)

382 unique human kinases [9] = molecular target: T9, 382 unique human kinases (Homo sapiens, UniProt P11362, V561M); conditions: FGFR1 (V561M), 10 uM; for remaining activity at 10 µM: read-out: % Enzyme Activity (relative to DMSO controls)
T9 construct: purchased Reaction Biology (HotSpot contract assay)

382 unique human kinases [10] = molecular target: T10, 382 unique human kinases (Homo sapiens, UniProt P68400); conditions: CK2a, 10 uM; for remaining activity at 10 µM: read-out: % Enzyme Activity (relative to DMSO controls)
T10 construct: purchased Reaction Biology (HotSpot contract assay)
T10 sequence (P68400 whole entry): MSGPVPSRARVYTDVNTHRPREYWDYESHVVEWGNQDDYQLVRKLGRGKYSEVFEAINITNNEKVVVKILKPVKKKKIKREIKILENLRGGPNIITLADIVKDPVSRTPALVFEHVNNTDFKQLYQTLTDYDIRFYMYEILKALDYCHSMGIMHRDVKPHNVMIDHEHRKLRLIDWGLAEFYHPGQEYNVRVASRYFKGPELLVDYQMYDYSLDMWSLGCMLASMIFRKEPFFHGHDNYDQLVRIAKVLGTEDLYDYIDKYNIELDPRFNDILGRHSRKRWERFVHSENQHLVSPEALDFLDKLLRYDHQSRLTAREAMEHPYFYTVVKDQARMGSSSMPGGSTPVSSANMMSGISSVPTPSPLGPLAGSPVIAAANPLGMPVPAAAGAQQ

T2 sequence (P15056 whole entry V600A): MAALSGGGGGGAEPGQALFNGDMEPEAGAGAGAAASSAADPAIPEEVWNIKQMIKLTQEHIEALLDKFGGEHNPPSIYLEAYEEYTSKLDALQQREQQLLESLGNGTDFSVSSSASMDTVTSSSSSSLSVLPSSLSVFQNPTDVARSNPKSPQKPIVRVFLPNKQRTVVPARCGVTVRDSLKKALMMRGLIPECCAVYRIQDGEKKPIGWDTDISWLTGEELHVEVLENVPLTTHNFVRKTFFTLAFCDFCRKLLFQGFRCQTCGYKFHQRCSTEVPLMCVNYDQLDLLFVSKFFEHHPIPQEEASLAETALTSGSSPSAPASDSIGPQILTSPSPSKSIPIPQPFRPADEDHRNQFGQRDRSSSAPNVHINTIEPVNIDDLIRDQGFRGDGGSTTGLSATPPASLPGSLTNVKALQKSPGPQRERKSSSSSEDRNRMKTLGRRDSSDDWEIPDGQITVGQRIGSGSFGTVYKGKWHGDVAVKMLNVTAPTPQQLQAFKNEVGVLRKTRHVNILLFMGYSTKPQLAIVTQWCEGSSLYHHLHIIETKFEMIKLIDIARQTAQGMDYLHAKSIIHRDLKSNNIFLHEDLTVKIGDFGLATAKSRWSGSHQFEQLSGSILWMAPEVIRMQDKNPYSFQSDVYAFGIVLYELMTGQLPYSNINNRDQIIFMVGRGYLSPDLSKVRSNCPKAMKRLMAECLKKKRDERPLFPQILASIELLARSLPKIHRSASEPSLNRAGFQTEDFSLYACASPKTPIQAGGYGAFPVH
T9 sequence (P11362 22-822 V561M): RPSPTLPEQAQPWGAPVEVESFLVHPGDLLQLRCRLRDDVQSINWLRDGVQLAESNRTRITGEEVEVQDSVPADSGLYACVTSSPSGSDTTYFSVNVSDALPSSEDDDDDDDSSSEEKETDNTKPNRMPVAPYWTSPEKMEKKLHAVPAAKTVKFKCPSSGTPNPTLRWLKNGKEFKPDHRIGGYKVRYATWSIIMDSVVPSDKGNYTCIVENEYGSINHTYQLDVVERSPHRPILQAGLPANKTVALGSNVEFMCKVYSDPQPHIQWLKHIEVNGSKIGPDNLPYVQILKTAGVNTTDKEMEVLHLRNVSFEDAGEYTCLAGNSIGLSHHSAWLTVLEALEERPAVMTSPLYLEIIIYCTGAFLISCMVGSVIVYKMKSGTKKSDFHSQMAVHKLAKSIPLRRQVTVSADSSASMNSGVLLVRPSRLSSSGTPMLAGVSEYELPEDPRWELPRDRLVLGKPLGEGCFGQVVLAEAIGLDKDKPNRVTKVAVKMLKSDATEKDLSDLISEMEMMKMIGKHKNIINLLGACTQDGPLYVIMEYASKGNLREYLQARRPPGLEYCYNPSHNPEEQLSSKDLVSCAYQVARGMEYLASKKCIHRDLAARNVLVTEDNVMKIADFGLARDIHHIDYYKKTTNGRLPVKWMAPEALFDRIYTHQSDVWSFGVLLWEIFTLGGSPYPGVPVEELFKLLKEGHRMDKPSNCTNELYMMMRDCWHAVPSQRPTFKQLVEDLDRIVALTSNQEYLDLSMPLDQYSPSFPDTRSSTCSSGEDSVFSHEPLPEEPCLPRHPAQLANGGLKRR
T1 sequence (O75676 whole entry): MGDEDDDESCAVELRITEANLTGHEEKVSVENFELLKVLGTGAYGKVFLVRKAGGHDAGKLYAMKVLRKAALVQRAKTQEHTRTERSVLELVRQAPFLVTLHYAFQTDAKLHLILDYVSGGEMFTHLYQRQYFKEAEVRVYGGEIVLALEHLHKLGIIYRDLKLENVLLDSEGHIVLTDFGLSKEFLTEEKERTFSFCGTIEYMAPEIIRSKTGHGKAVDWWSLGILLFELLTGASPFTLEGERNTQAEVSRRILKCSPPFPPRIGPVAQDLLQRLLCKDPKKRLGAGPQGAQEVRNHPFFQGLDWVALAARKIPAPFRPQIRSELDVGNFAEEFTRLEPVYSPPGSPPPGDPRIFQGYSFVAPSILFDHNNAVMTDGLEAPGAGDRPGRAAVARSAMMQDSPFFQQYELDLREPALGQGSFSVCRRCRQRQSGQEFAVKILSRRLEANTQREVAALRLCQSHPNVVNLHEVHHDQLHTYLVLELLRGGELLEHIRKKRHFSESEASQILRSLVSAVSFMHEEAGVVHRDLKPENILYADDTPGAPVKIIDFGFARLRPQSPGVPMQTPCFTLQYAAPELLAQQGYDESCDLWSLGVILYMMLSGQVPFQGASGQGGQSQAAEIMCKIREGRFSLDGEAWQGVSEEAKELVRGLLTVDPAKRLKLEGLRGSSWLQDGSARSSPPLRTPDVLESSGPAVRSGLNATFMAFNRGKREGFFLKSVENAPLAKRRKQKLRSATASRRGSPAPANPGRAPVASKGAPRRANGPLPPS
T3 sequence (P29376 17-864): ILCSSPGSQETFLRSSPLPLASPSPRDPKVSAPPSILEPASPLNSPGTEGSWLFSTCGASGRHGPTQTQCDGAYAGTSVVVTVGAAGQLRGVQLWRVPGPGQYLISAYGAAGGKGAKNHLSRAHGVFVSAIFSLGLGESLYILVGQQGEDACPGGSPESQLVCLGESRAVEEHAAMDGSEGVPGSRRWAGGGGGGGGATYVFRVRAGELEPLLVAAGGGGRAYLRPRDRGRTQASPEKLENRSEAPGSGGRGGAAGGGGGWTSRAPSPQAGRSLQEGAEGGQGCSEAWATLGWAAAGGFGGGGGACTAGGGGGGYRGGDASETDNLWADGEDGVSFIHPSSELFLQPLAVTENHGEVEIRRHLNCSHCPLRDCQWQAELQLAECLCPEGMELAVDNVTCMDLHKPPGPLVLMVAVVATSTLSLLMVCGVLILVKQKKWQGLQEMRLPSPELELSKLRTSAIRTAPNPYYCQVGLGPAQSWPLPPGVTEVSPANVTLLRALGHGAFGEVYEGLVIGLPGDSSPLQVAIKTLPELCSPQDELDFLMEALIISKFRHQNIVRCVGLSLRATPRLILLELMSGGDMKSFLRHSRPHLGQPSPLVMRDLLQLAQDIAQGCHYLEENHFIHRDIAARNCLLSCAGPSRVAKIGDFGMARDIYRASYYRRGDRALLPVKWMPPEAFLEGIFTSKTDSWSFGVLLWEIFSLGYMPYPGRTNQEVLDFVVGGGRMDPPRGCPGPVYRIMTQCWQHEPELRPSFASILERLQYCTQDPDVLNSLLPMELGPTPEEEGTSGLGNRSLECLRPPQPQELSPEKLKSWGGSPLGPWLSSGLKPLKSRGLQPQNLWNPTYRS
T7 sequence (Q9P0L2 whole entry): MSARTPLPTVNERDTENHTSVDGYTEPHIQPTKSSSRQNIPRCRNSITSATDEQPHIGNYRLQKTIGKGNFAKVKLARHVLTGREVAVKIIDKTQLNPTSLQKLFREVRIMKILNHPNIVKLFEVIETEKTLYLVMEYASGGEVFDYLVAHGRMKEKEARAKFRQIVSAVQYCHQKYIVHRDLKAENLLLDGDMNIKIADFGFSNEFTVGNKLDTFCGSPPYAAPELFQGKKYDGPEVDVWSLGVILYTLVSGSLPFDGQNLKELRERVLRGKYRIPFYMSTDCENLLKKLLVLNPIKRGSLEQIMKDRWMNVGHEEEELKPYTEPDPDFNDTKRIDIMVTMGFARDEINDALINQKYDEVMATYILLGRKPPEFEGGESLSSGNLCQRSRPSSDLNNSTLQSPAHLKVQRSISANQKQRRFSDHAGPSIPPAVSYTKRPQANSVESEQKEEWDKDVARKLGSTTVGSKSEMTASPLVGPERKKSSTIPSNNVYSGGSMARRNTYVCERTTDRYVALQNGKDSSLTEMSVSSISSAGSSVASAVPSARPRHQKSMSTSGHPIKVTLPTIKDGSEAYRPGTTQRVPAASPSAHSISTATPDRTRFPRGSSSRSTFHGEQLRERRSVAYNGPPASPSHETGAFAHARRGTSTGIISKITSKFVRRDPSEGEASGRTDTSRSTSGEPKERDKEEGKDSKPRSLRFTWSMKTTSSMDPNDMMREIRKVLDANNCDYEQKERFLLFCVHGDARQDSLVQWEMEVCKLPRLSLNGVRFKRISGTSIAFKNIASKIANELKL
T6 sequence (Q9BUB5 whole entry): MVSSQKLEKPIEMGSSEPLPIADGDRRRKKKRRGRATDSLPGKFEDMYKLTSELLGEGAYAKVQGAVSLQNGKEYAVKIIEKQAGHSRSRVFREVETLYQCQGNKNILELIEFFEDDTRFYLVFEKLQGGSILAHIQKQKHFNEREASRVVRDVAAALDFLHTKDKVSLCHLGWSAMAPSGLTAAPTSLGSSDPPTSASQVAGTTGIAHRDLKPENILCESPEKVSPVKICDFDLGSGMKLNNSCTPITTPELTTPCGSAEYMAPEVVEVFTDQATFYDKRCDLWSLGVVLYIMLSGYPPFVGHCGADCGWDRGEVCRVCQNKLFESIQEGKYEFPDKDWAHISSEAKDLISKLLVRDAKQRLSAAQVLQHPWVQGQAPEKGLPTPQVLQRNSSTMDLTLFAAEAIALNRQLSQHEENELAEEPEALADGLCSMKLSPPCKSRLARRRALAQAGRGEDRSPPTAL

| SMILES | remaining activity at 10 µM (382 unique human kinases [1]) [%] | remaining activity at 10 µM (382 unique human kinases [2]) [%] | remaining activity at 10 µM (382 unique human kinases [3]) [%] | remaining activity at 10 µM (382 unique human kinases [4]) [%] | remaining activity at 10 µM (382 unique human kinases [5]) [%] | remaining activity at 10 µM (382 unique human kinases [6]) [%] | remaining activity at 10 µM (382 unique human kinases [7]) [%] | remaining activity at 10 µM (382 unique human kinases [8]) [%] | remaining activity at 10 µM (382 unique human kinases [9]) [%] | remaining activity at 10 µM (382 unique human kinases [10]) [%] | % Enzyme Activity (relative to DMSO controls) (382 unique human kinases [1]) [%] | % Enzyme Activity (relative to DMSO controls) (382 unique human kinases [2]) [%] | % Enzyme Activity (relative to DMSO controls) (382 unique human kinases [3]) [%] | % Enzyme Activity (relative to DMSO controls) (382 unique human kinases [4]) [%] | % Enzyme Activity (relative to DMSO controls) (382 unique human kinases [5]) [%] | % Enzyme Activity (relative to DMSO controls) (382 unique human kinases [6]) [%] | % Enzyme Activity (relative to DMSO controls) (382 unique human kinases [7]) [%] | % Enzyme Activity (relative to DMSO controls) (382 unique human kinases [8]) [%] | % Enzyme Activity (relative to DMSO controls) (382 unique human kinases [9]) [%] | % Enzyme Activity (relative to DMSO controls) (382 unique human kinases [10]) [%] |
| --- | --- | --- | --- | --- | --- | --- | --- | --- | --- | --- | --- | --- | --- | --- | --- | --- | --- | --- | --- | --- |
| CC(C)c1cc(-c2n[nH]c(=O)n2-c2ccc3c(ccn3C)c2)c(O)cc1O [Ganetespib (STA9090)] | 87.3 | 119 | 73.6 | 75.4 | 110 | 79.3 | 112 |  |  |  |  |  |  |  |  |  |  |  |  |  |
| CC(C)c1cc(-c2n[nH]c(=O)n2-c2ccc3c(ccn3C)c2)c(O)cc1O [Ganetespib] |  |  |  |  |  |  |  | 104 | 97.7 | 101 |  |  |  |  |  |  |  |  |  |  |
| CCNC(=O)c1noc(-c2cc(C(C)C)c(O)cc2O)c1-c1ccc(CN2CCOCC2)cc1 [Luminespib (AUY-922)] | 94.4 | 105 | 98.2 | 96.7 | 106 | 106 | 110 |  |  |  | 94.10 | 102.37 | 97.76 | 95.66 | 105.53 | 105.09 | 104.63 |  |  |  |
| CCNC(=O)c1noc(-c2cc(C(C)C)c(O)cc2O)c1-c1ccc(CN2CCOCC2)cc1 [Luminespib] |  |  |  |  |  |  |  | 99 | 103 | 117 |  |  |  |  |  |  |  | 97.19 | 101.68 | 112.96 |
